Source: patent US6433151B1, “Erythromycin derivatives, a process for their preparation and their use as medicaments” (Aventis Pharma S.A., priority 1998, dated 2002)

How the values were obtained:
Experiment in all cases: Method of dilutions in a liquid medium (MIC)
Type in all cases: cell-based
S. pneumoniae 030SJ1c = conditions: ery R, reading after 24 hours
Method: (§1) Method of Dilutions in a Liquid Medium
(§2) A series of tubes in which the same amount of sterile nutrient medium is distributed is prepared. Increasing amounts of the product to be studied are distributed in each tube, and each tube is then seeded with a strain of bacteria.
(§3) After incubation for twenty-four hours in an oven at 37° C., the inhibition of growth is evaluated by transillumination, from which the minimum inhibitory concentrations (MIC), expressed in micrograms/cm^3, can be determined.
(§4) The following results were obtained with the product from example 1 and from example 2 (reading taken after 24 hours).

S. epidermidis 012GO11I = conditions: oxa S ery R, reading after 24 hours
Method: as §1, §2, §3, §4

S. agalactiae 02B1HT1 = conditions: S. agalactiae 02B1HT1, ery S; reading after 24 hours
Method: as §1, §2, §3, §4

S. mitis 02MitGR16I = conditions: ery R, reading after 24 hours
Method: as §1, §2, §3, §4

S. aureus 011UC4 = conditions: reading after 24 hours
Method: as §1, §2, §3, §4

E. faecalis 02D2DU15c = conditions: ery R, reading after 24 hours
Method: as §1, §2, §3, §4

S. pneumoniae 030R01I = conditions: ery R, reading after 24 hours
Method: as §1, §2, §3, §4

S. aureus 011GO25I = conditions: oxa S ery R, reading after 24 hours
Method: as §1, §2, §3, §4

S. agalactiae 02B1SJ1c = conditions: ery R, reading after 24 hours
Method: as §1, §2, §3, §4

S. sanguis 02SgGr10I = conditions: ery R, reading after 24 hours
Method: as §1, §2, §3, §4

[1] = tested on: Streptococcus gr. G 02GOGR5; conditions: Streptococcus gr. G 02GOGR5, Ery S; reading after 24 hours
Method: as §1, §2, §3, §4

E. faecium 02D3HT1 = conditions: E. faecium 02D3HT1, Ery S; reading after 24 hours
Method: as §1, §2, §3, §4

S. pneumoniae 030PW23c = conditions: ery R, reading after 24 hours
Method: as §1, §2, §3, §4

S. pneumoniae 030CR18c = conditions: ery R, reading after 24 hours
Method: as §1, §2, §3, §4

S. mitis 02MitCB1 = conditions: S. mitis 02MitCB1, Ery S; reading after 24 hours
Method: as §1, §2, §3, §4

S. pyogenes 02A1UC1 = conditions: S. pyogenes 02A1UC1, ery S; reading after 24 hours
Method: as §1, §2, §3, §4

E. faecalis 02D2UC1 = conditions: E. faecalis 02D2UC1, ery S; reading after 24 hours
Method: as §1, §2, §3, §4

S. pneumoniae 032UC1 = conditions: S. pneumoniae 032UC1, ery S; reading after 24 hours
Method: as §1, §2, §3, §4

S. pneumoniae 030GR20 = conditions: S. pneumoniae 030GR20, ery S; reading after 24 hours
Method: as §1, §2, §3, §4

S. pneumoniae 030SJ51 = conditions: S. pneumoniae 030SJ51, ery R; reading after 24 hours
Method: as §1, §2, §3, §4

[2] = S. aureus 011UC4 + serum 50%, ery S

Row | minimum inhibitory concentrations (MIC) (S. pneumoniae 030SJ1c) | minimum inhibitory concentrations (MIC) (S. epidermidis 012GO11I) | minimum inhibitory concentrations (MIC) (S. agalactiae 02B1HT1) | minimum inhibitory concentrations (MIC) (S. mitis 02MitGR16I) | minimum inhibitory concentrations (MIC) (S. aureus 011UC4; [2]) | minimum inhibitory concentrations (MIC) (S. aureus 011UC4; S. aureus 011UC4, ery S) | minimum inhibitory concentrations (MIC) (E. faecalis 02D2DU15c) | minimum inhibitory concentrations (MIC) (S. pneumoniae 030R01I) | minimum inhibitory concentrations (MIC) (S. aureus 011GO25I) | minimum inhibitory concentrations (MIC) (S. agalactiae 02B1SJ1c) | minimum inhibitory concentrations (MIC) (S. sanguis 02SgGr10I) | minimum inhibitory concentrations (MIC) [1] | minimum inhibitory concentrations (MIC) (E. faecium 02D3HT1) | minimum inhibitory concentrations (MIC) (S. pneumoniae 030PW23c) | minimum inhibitory concentrations (MIC) (S. pneumoniae 030CR18c) | minimum inhibitory concentrations (MIC) (S. mitis 02MitCB1) | minimum inhibitory concentrations (MIC) (S. pyogenes 02A1UC1) | minimum inhibitory concentrations (MIC) (E. faecalis 02D2UC1) | minimum inhibitory concentrations (MIC) (S. pneumoniae 032UC1) | minimum inhibitory concentrations (MIC) (S. pneumoniae 030GR20) | SMILES | also measured
1 | 0.080 micrograms/cm^3 | 0.150 micrograms/cm^3 | <=0.02 micrograms/cm^3 | 0.080 micrograms/cm^3 | 0.040 micrograms/cm^3 | 0.300 micrograms/cm^3 | >40 micrograms/cm^3 | 0.150 micrograms/cm^3 | 5.000 micrograms/cm^3 | 0.600 micrograms/cm^3 | 0.150 micrograms/cm^3 | 0.080 micrograms/cm^3 | 0.080 micrograms/cm^3 | 0.150 micrograms/cm^3 | 10.000 micrograms/cm^3 | 0.080 micrograms/cm^3 | 0.800 micrograms/cm^3 | 0.080 micrograms/cm^3 | <=0.02 micrograms/cm^3 | <=0.02 micrograms/cm^3 | CCC1OC(=O)C(C)C(=O)C(C)C(OC2OC(C)CC(NC)C2O)C(C)(OC)CC(C)C(=O)C(C)C2N(CCCCn3cnc(-c4cccnc4)c3)C(=O)OC12C [Ex. 1, N-Demethyl-11,12-dideoxy-3-de[(2,6-dideoxy-3-C-methyl-3-O-methyl-alpha-L-ribohexopyranosyl)-oxy]-6-O-methyl-3-oxo-12,11-[oxycarbonyl[[4-[4-(3-pyridinyl)-1H-imidazol-1-yl]butyl]imino]]-erythromycin] | minimum inhibitory concentrations (MIC) (S. pneumoniae 030SJ51): 0.080 micrograms/cm^3
2 | 0.150 micrograms/cm^3 | 0.300 micrograms/cm^3 | 0.020 micrograms/cm^3 | 0.080 micrograms/cm^3 | 0.150 micrograms/cm^3 | 0.080 micrograms/cm^3 | >20 micrograms/cm^3 | 0.300 micrograms/cm^3 | 0.600 micrograms/cm^3 | 0.150 micrograms/cm^3 | 0.150 micrograms/cm^3 | 0.040 micrograms/cm^3 | 0.040 micrograms/cm^3 | 0.080 micrograms/cm^3 | 2.500 micrograms/cm^3 | <=0.01 micrograms/cm^3 | 0.040 micrograms/cm^3 | 0.040 micrograms/cm^3 | <=0.01 micrograms/cm^3 | <=0.01 micrograms/cm^3 | CCC1OC(=O)C(C)C(=O)C(C)C(OC2OC(C)CC(NC)C2O)C(C)(OC)CC(C)C(=O)C(C)C2N(NCCCc3ccnc4ccccc34)C(=O)OC12C [Ex. 2, N-Demethyl-11,12-dideoxy-3-de((2,6-dideoxy-3-C-methyl-3-O-methyl-alpha-L-ribohexopyranosyl)oxy)-6-O-methyl-3-oxo-12,11-(oxycarbonyl(2-(3-(4-quinolinyl)-propyl)-hydrazono))-erythromycin] | minimum inhibitory concentrations (MIC) (S. pneumoniae 030SJ51): 0.080 micrograms/cm^3
